For this test, the target named is Chitinase (Trichoderma). Description: Compound was evaluated for inhibitory activity against Trichoderma Chitinase.

The term IC50 denotes the concentration at which inhibition is half-maximal. A high value points to weaker potency. Compound `CC(=O)NC(/C=N/NC(=O)CCCCCNC(=O)CCCCC1SC[C@H]2NC(=O)N[C@@H]12)C(OC(C=O)CO)OC1C(CO)OC(OC2C(O)C3N=C(N(C)C)OC3C2CO)C(NC(C)=O)C1O` (some centres undefined) displayed an IC50 of 41.1 nM.

As for `CC(=O)NC(/C=N/NC(=O)CCCCCNC(=O)CCCCC1SC[C@@H]2NC(=O)N[C@H]12)C(OC(/C=N/NC(=O)CCCCCNC(=O)CCCCC1SC[C@@H]2NC(=O)N[C@H]12)CO)OC1C(CO)OC(OC2C(O)C3N=C(N(C)C)OC3C2CO)C(NC(C)=O)C1O` (some centres undefined), the half-maximal inhibitory concentration (IC50) was 7.53 nM. Take `CC(=O)NC(CO)C(OC(CO)CO)OC1C(CO)OC(OC2C(O)C3N=C(N(C)C)OC3C2CO)C(NC(C)=O)C1O` (centres undefined): the IC50 was 80 nM.

`CC(=O)NC(/C=N/NC(=O)CCCCCNC(=O)CCCCC1SC[C@H]2NC(=O)N[C@@H]12)C(OC(CO)CO)OC1C(CO)OC(OC2C(O)C3N=C(N(C)C)OC3C2CO)C(NC(C)=O)C1O` (some centres undefined) returned a half-inhibitory concentration (IC50) of 41 nM.

These data come from BindingDB's records for doi:10.1016/s0960-894x(98)00542-3 (University of Tokyo, 1998).
